# Several values for one entry are separate records, joined by “and”; a condition that tells them apart may be missing. Identical values can stand only once. Like-named read-outs stand apart in the source and are kept apart here.
# Experiments:
# [1] = test system: dopamine neurons in the VTA; details: rat, in vivo; cited from earlier work
# [2] = target: T1, α4β3γ2 GABAA/BzR (Homo sapiens, UniProt P18507+P48169); assay: biochemical; format: binding
# T1 construct: expressed in transfected cells; host or cells: LTK cells (given for XLi-093 only)
# [3] = test system: Bz BS of GABA(A) receptors; details: cited from earlier work
# [4] = target: T2, α3β3γ2 GABAA/BzR (Homo sapiens, UniProt P18507+P34903); assay: Competition binding to HEK cell membranes, α3β3γ2; design: expressed in transfected cells
# [5] = target: T3, α5β3γ2 GABAA/BzR (Homo sapiens, UniProt P18507+P31644); assay: Competition binding to HEK cell membranes, α5β3γ2; design: expressed in transfected cells
# [6] = target: T4, α6β3γ2 GABAA/BzR (Homo sapiens, UniProt P18507+Q16445); assay: Competition binding to HEK cell membranes, α6β3γ2; design: expressed in transfected cells
# [7] = target: T5, α1β3γ2 GABAA/BzR (Homo sapiens, UniProt P14867+P18507); design: expressed in transfected cells; host or cells: LTK cells (given for XLi-093 only); details: cited from earlier work
# [8] = target: T3, α5β3γ2 GABAA/BzR; design: expressed in transfected cells; host or cells: LTK cells (given for XLi-093 only); details: cited from earlier work
# [9] = target: T4, α6β3γ2 GABAA/BzR; design: expressed in transfected cells; host or cells: LTK cells (given for XLi-093 only); details: cited from earlier work
# [10] = target: T1, α4β3γ2 GABAA/BzR; details: cited from earlier work
# [11] = target: T5, α1β3γ2 GABAA/BzR; assay: Competition binding to HEK cell membranes, α1β3γ2; design: expressed in transfected cells
# [12] = target: T6, α2β3γ2 GABAA/BzR (Homo sapiens, UniProt P18507+P47869); assay: Competition binding to HEK cell membranes, α2β3γ2; design: expressed in transfected cells
# [13] = target: T6, α2β3γ2 GABAA/BzR; design: expressed in transfected cells; host or cells: LTK cells (given for XLi-093 only); details: cited from earlier work
# [14] = target: T2, α3β3γ2 GABAA/BzR; design: expressed in transfected cells; host or cells: LTK cells (given for XLi-093 only); details: cited from earlier work
# [15] = test system: human airway smooth muscle cells; details: 200 μM; cited from earlier work
# [16] = Figure 33, αxβ3γ2, read-out: Affinity Ki α1
# [17] = Figure 33, αxβ3γ2, read-out: Affinity Ki α5
# [18] = Figure 33, αxβ3γ2, read-out: Affinity Ki α6
# [19] = Figure 33, αxβ3γ2, read-out: Affinity Ki α4
# [20] = Figure 33, αxβ3γ2, read-out: Affinity Ki α2
# [21] = Figure 33, αxβ3γ2, read-out: Affinity Ki α3
compound,measurement,setting,value
"NC1=N[C@H](O)[C@H]2[C@H]3O[C@]4(O)O[C@@H]([C@@H](O)[C@@]2(N1)[C@@H]4O)[C@]3(O)CO [TTX, Tetrodotoxin, reference compound]",cells/track after infusion in the ventral HPC of haloperidol-treated rats,[1],"reversed the haloperidol-induced reduction in cells/track in SAL, but not MAM"
C#Cc1ccc2[nH]c3cnc(C(=O)OC(C)(C)C)cc3c2c1 [WY-A-99-2 (WYS8)],Ki,[2],2000 nM
same,pharmacological properties compared with classical benzodiazepine receptor antagonists,[3],near GABA neutral antagonists
same,Ki,[4]; Ki α3,1.63 nM
same,Ki,[5]; Ki α5,208 nM and 51 nM
same,Ki,[6]; Ki α6,1980 nM
same,Ki,[7]; [16],0.972 nM
same,Ki,[8]; [17],1470 nM
same,Ki,[9]; [18],1980 nM
CC(C)(C)OC(=O)c1cc2c(cn1)[nH]c1ccc(C#C[Si](C)(C)C)cc12 [WY-B-14 (WYS7)],Ki,[2],2000 nM
same,Ki,[10]; [19],2000 nM
same,Ki,[11]; Ki α1,6.84 nM and 8.5 nM
same,Ki,[12]; Ki α2,30 nM and 165 nM
same,Ki,[4]; Ki α3,36 nM and 245 nM
same,Ki,[6]; Ki α6,1000 nM and 5000 nM
same,Ki,[7]; [16],6.8 nM
same,Ki,[13]; [20],30 nM
same,Ki,[14]; [21],36 nM
same,Ki,[8]; [17],108 nM
same,Ki,[9]; [18],1000 nM
O=C(OCC(F)(F)F)c1cc2c(cn1)[nH]c1ccc(I)cc12 [WY-B-20],Ki,[2],2000 nM
same,Ki,[10]; [19],2000 nM
same,Ki,[11]; Ki α1,12 nM
same,Ki,[12]; Ki α2,39 nM
same,Ki,[4]; Ki α3,47 nM
same,Ki,[5]; Ki α5,122 nM
same,Ki,[6]; Ki α6,3000 nM
same,Ki,[7]; [16],12 nM
same,Ki,[13]; [20],39 nM
same,Ki,[14]; [21],47 nM
same,Ki,[8]; [17],122 nM
same,Ki,[9]; [18],3000 nM
O=C(OCC(F)(F)F)c1cc2c(cn1)[nH]c1ccc(-c3cccs3)cc12 [WY-B-27-2],Ki,[2]; read-out: Ki α4,2000 nM
same,Ki,[10]; read-out: Affinity Ki α4,2000 nM
same,Ki,[11]; read-out: Ki α1,9.19 nM
same,Ki,[12]; read-out: Ki α2,111 nM
same,Ki,[4]; read-out: Ki α3,72 nM
same,Ki,[5]; read-out: Ki α5,449 nM
same,Ki,[6]; read-out: Ki α6,2000 nM
same,Ki,[7]; read-out: Affinity Ki α1,9.2 nM
same,Ki,[13]; read-out: Affinity Ki α2,13 nM
same,Ki,[14]; read-out: Affinity Ki α3,72 nM
same,Ki,[8]; read-out: Affinity Ki α5,449 nM
same,Ki,[9]; read-out: Affinity Ki α6,2000 nM
CCOC(=O)c1cc2c(cn1)[nH]c1ccc(C#C[Si](C)(C)C)cc12 [WY-B-99-1],Ki,[2],2000 nM
same,Ki,[10]; [19],2000 nM
same,Ki,[11]; Ki α1,4.4 nM
same,Ki,[11]; read-out: Ki α1,4.4 nM
same,Ki,[12]; Ki α2,4.5 nM
same,Ki,[12]; read-out: Ki α2,4.5 nM
same,Ki,[4]; Ki α3,5.58 nM
same,Ki,[4]; read-out: Ki α3,5.58 nM
same,Ki,[5]; Ki α5,47 nM
same,Ki,[5]; read-out: Ki α5,47 nM
same,Ki,[6]; Ki α6,2000 nM
same,Ki,[7]; [16],4.4 nM
same,Ki,[13]; [20],4.5 nM
same,Ki,[14]; [21],5.58 nM
same,Ki,[8]; [17],47 nM
same,Ki,[9]; [18],2000 nM
"CCOC(=O)c1ncc2[nH]c3ccc(OCc4ccccc4)cc3c2c1COC [ZK 93423, 6-(benzyloxy)-4-(methoxymethyl)-β-carboline-3-carboxylic acid ethyl ester, reference compound]",modulation,[3]; Supplement Table 1,agonist
same,Ki,[11]; Ki α1,4.1 nM
same,Ki,[12]; Ki α2,4.2 nM
same,Ki,[4]; Ki α3,6 nM
same,Ki,[5]; Ki α5,4.5 nM
same,Ki,[6]; Ki α6,1000 nM
"CN1CCc2cccc3c2[C@H]1Cc1ccc(O)c(O)c1-3 [apomorphine, reference compound]","number of active dopamine neurons, MAM rats withdrawn from repeated HAL",[1],no effect
same,"number of spontaneously active dopamine neurons, SAL rats withdrawn from repeated HAL",[1],increased
C#CC#Cc1ccc2c(c1)C(=O)N1CCC[C@H]1c1c(C(=O)OCC)ncn1-2 [compound 8],Ki,"[10]; Figure 4, read-out: Ki α4",> 1000 nM
same,Ki,"[7]; Figure 4, read-out: Ki α1",> 1000 nM
same,Ki,"[13]; Figure 4, read-out: Ki α2",> 1000 nM
same,Ki,"[14]; Figure 4, read-out: Ki α3",> 1000 nM
same,Ki,"[8]; Figure 4, read-out: Ki α5",64 nM
same,Ki,"[9]; Figure 4, read-out: Ki α6",> 1000 nM
"COc1ccc(-c2ccc(=N)n(CCCC(=O)O)n2)cc1 [gabazine, reference compound]",effect on the attenuation by SH-053-2′F-R-CH3 of the calcium increase,[15],significantly blocked
"O=C(CCCN1CCC(O)(c2ccc(Cl)cc2)CC1)c1ccc(F)cc1 [haloperidol, reference compound]","number of spontaneously active dopamine neurons after repeated treatment, SAL and MAM rats",[1],reduction
Ro15-4513 [reference compound],modulation,[3],inverse agonist
same,Ki,[12]; read-out: Ki α2,2.6 nM
same,Ki,[5]; read-out: Ki α5,0.26 nM
